# Patent US12071624B2, “Antisense oligonucleotide targeting ARL4C molecule, and nucleic acid drug using antisense oligonucleotide” (OSAKA UNIVERSITY, priority 2018, dated 2024)
# Tests used:
# [1] = test system: ARL4C mRNA; assay: Screening of ARL4C ASO knockdown efficiency by real-time PCR in A549 cells; type: cell-based, human; conditions: screening of 38 types of ARL4C ASOs
# Protocol: (§1) HLE cells, HCT116 cells, and A549 cells were transfected with 25 to 50 nM ASO and 10 to 20 nM siRNA using Lipofectamine 3000 (Invitrogen, Carlsbad, CA, USA) or RNAiMAX (Invitrogen). Transfected cells were used in the experiments 36 to 48 hours after the end of the transfection.
# (§2) Cell migration assays and quantitative real-time PCR analyses were performed according to the methods reported by Fujii S et al. (Oncogene 2015; 34: 4834-44).
# First, base sequences of 15-nucleotide ARL4C were selected based on the structure of ARL4C mRNA. From thousands of ARL4C ASO candidates, those that may cause hepatotoxicity were excluded, and 38 types of ARL4C ASOs (those other than ASO-1312, ASO-1450 and ASO-3223 among the ASOs in Table 1) were selected, by high-dimensional structure prediction of ARL4C mRNA. The ASOs used in this test were those in which all of the phosphodiester bonds were substituted with phosphorothioate bonds. Knockdown efficiencies of ARL4C ASOs in A549 cells (lung adenocarcinoma cells) were investigated by screening experiments using real-time PCR. It has been confirmed that the protein abundance of ARL4C in A549 cells is reduced by treatment with ARL4C siRNA. The ARL4C mRNA amounts in A549 cells treated with 38 types of ARL4C ASOs were measured, and the results are shown in (a) of FIG. 3.
# [2] = test system: ARL4C mRNA; assay: ARL4C mRNA amount by real-time PCR in HCT116 cells; type: cell-based, human; conditions: HCT116 cells transfected at 25 nM
# Protocol: as §1, §2
# HLE cells and HCT116 cells were transfected with the above-described seven types of ARL4C ASOs and the control ASO at 25 nM, and the ARL4C mRNA amounts were measured by real-time PCR; the results thereof are shown in (a) of FIG. 4. […] In order to optimize the effect of these three types of ARL4C ASOs, four bases were added to each of these three types of ARL4C ASOs, whereby ASO-1312, ASO-1450, and ASO-3223 each of which consisted of 19 bases were produced. With these six types of ARL4C ASOs (ASO-1316, ASO-1312, ASO-1454, ASO-1450, ASO-3225, and ASO-3223), the knockdown effect on ARL4C was further studied.
# [3] = test system: S2-CP8/Luc cells; assay: Xenograft orthotopic transplantation model using pancreatic cancer cells; type: in vivo, mouse; conditions: twice a week from 3 days after transplantation, 28 days after transplantation
# Protocol: Assay based on the xenograft orthotopic transplantation model using pancreatic cancer cells was performed by arranging the method described in the literature (Kim M P. et. al., Nat Protoc 2009; 4: 1670-80). Specifically, S2-CP8/Luc cells (5×10^5 cells) were suspended in 100 μl of Hanks' Balanced Salt Solution (HBSS) containing 50% matrigel, and were orthotopically transplanted in the central part of the pancreas using a 27 G needle. Three days after transplantation, the mice were divided into two groups, a control ASO-administered group (n=6) and an ARL4C ASO-administered group (n=7). […] Tumors were quantified once a week using the IVIS imaging system (Xenogen Corp.). In the in-vivo imaging, 100 μl of VivoGlo luciferin (30 mg/ml) was intraperitoneally administered, and bioluminescence images were recorded eight minutes after the administration. The quantification of the tumors was carried out in the following manner: a region of interest (ROI) was selected, and a radiance value of the same was measured using Living Image 4.3.1 Software (Caliper Life Science). The mice were euthanized 28 days after the transplantation, tumor weights and the number of mesenteric lymph nodes (lymph nodes of 1 mm or larger in diameter) were determined, and histological analysis was carried out. […]
substance,measurement,setting,value
"ASO-1316: 15-mer AmNA/phosphorothioate ASO targeting ARL4C, base sequence SEQ ID NO: 1 gcatacctcaggtaa; Table 1 SEQ ID NO 13 (antisense GCATACCTCAGGTAA; AmNA and phosphorothioate modified, pattern not given here)",knockdown efficiency (ARL4C mRNA amount),[1],high knockdown efficiencies
same,ARL4C mRNA amount,[2],reduced the ARL4C mRNA amount
same,cancer metastasis to mesenteric lymph nodes,[3],could suppress cancer metastasis to mesenteric lymph nodes
